# Test results as given in article PMC7606612, “Identification of HMGA2 inhibitors by AlphaScreen-based ultra-high-throughput screening assays” (Scientific Reports, 2020).
# Tests used:
# HMGA2-DNA interactions [1] = target: T1, HMGA2-DNA interactions (Mus musculus, UniProt P52927); test: AlphaScreen primary uHTS assay of His-tagged HMGA2 binding to biotin-labeled DNA oligomer FL814; set-up: species or system mammalian; details: for inhibition at 5 µM / inhibition of HMGA2-FL814 interactions: LOPAC1280 screen, final concentration of 5 µM; for inhibition of HMGA2-DNA interactions (in words): confirmed hits that do not bind to DNA; for IC50: positive controls, Fig. S1e
# T1 construct: made in house
# T1 sequence (P52927 2-108 limits assumed): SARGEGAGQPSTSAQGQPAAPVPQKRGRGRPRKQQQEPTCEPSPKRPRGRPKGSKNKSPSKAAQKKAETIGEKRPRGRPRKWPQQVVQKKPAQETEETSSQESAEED
# Method: To address these limitations, we established a new assay using AlphaScreen technology. The assay entails binding a biotin-labeled DNA oligomer FL814 and His-tagged HMGA2 to streptavidin-coated donor beads and nickel chelate (Ni-NTA) acceptor beads, respectively (Fig. 1). A series of DNA binding studies were performed to determine the optimal conditions for the AlphaScreen Primary Assay (Fig. S1a–d). […] These two inhibitors are readily available for purchase and served as positive controls for HMGA2-DNA interaction inhibition in the assay.
# Using a Labcyte Echo 555 acoustic dispenser 5 nL of DMSO were added to columns 1–4 and 45–48 of a white 1536 well plate, while 5 nL of 2 mM compounds in DMSO were added to columns 5–44. Using a Beckman BioRAPTR FRD bulk reagent dispenser 1 µL of assay buffer (30 mM Citrate, 300 mM NaCl, and 0.005% Tween 20) was added to columns 1 and 2. Next 1 µL of assay buffer containing 125 nM HMGA2 was added to columns 3–48 with a Beckman BioRAPTR FRD bulk reagent dispenser. Finally, 1 µL of assay buffer containing 25 nM FL814 was added to every well of the plate using a Beckman BioRAPTR FRD bulk reagent dispenser. The plate was then centrifuged at 200 × g for 1 min. After 30 min at room temperature, 2 µL of bead buffer (10 mM HEPES, 300 mM NaCl and 0.005% Tween 20) containing 20 µg/mL anti-6xHIS acceptor beads and 20 µg/mL streptavidin donor beads were dispensed into every well using a Beckman BioRAPTR FRD bulk reagent dispenser. The plates were then centrifuged at 200 × g for 1 min. After 1 h at room temperature the plates were read on a Perkin Elmer Envision multimode plate reader in AlphaScreen mode.
# HMGA2-DNA interactions [2] = target: T1, HMGA2-DNA interactions; test: LANCE TR-FRET secondary assay of HMGA2 binding to FL814; set-up: species or system mammalian; concentration or dose not given beside the values; details: cherry picked primary hits
# Method: In this study, we also developed a LANCE time-resolved fluorescence energy transfer (TR-FRET) assay as a secondary assay for our screening. The His-tagged HMGA2 and biotinylated oligomer FL814 were linked to Europium-labeled anti-6 × His antibody and APC-labeled streptavidin, respectively. A series of DNA binding studies were performed to determine the optimal conditions for the secondary Assay (Fig. S2). After these experiments, 12.5 nM of FL814 and 62.5 nM of HMGA2 were chosen for the assay, which is the same for the primary assay. The assay tolerated up to 0.25% DMSO without any significant change in signal (Fig. S2c). For a counterscreen assay to exclude those compounds that nonspecifically bind to the protein surface, an AlphaScreen assay of H4 peptide binding to bromodomain-containing protein 4 (BRD4) was adopted (Fig. S2e). Since we are looking for compounds with anti-metastasis or anti-obesity activities, compounds with high levels of cytotoxicity are undesirable. […] Furthermore, potential DNA-binding compounds, i.e., DNA intercalators, minor groove binders, and DNA alkylating agents, can be identified by analyzing their chemical structures and will be excluded as well.
# Using a Labcyte Echo 555 acoustic dispenser 5 nL of DMSO were added to columns 1–4 and 45–48 of a white 1536 well plate, while 5 nL of 2 mM compounds in DMSO were added to columns 5–44. Using a Beckman BioRAPTR FRD bulk reagent dispenser 1 µL of assay buffer (10 mM Tris, 300 mM NaCl and 0.005% Tween 20) was added to columns 1 and 2. Next, 1 µL of assay buffer containing 125 nM HMGA2 was added to columns 3–48 with a Beckman BioRAPTR FRD bulk reagent dispenser. Finally, 1 µL of assay buffer containing 25 nM FL814 was added to every well of the plate using a Beckman BioRAPTR FRD bulk reagent dispenser. The plate was then centrifuged at 200 × g for 1 min. After 30 min at room temperature 1 µL of assay buffer containing 250 nM LANCE Ultra ULight-anti-6xHIS and 1 µL of assay buffer containing 12 nM LANCE Eu-W1024 Streptavidin was dispensed into every well using a Beckman BioRAPTR FRD bulk reagent dispenser. The plates were then centrifuged at 200 × g for 1 min. After 1 h at room temperature the plates were read on a Perkin Elmer Envision multimode plate reader in TR-FRET mode (excitation @340 nm, first emission at @665 nm, second emission at 615 nm).
# HMGA2-DNA interactions [3] = target: T1, HMGA2-DNA interactions; test: Protein-DNA interaction ELISA (PDI-ELISA) assay; format: binding, mammalian; details: for IC50: inhibition of HMGA2-DNA interactions, PDI-ELISA
# Description: The PDI-ELSA assays were described previously[33] and used to determine the inhibition IC50 against HMGA2-DNA interactions. The apparent inhibitory IC50 values were obtained using the following equation: y=min+(max-min/1+10^((x-logIC50)×Hillslope) , where x, y, max, and min represent the inhibitor’s concentration, the inhibition level, the maximum inhibition value, and the minimum inhibition value, respectively.
# HMGA2 = target: T2, HMGA2 (Mus musculus, UniProt P52927); test: Isothermal titration calorimetry (ITC), titration into HMGA2; format: binding, mammalian; details: for HMGA2 Binding site: number of sites
# T2 construct: made in house
# T2 sequence (P52927 2-108 limits assumed): T1 sequence (P52927 2-108 limits assumed)
# Method: (§1) ITC experiments were conducted using a VP-ITC titration calorimeter (MicroCal, Inc., Northampton, MA) interfaced to a PC. Origin 7.0, supplied by the manufacturer was used for data acquisition. […] The heat liberated or absorbed is observed as a peak corresponding to the power required keeping the sample and reference cells at identical temperatures. The peak produced during the injection is converted to heat output by integration and corrected for cell volume and sample concentration. […] The net enthalpy for the titration reaction was determined by subtraction of the component heats of dilution.
# [4] = target: “AT-hook” peptide 3 (ATHP3) (Homo sapiens, UniProt P52926); test: Isothermal titration calorimetry (ITC), titration into ATHP3; format: binding; details: for ATHP3 Ka (M^−1) / ATHP3 Binding site: first line; for ATHP3 Binding site: number of sites
# Method: as §1
# [5] = test system: mouse pre-adipocyte 3T3-L1 cells; set-up: method as in PMID 25653160; details: cited from earlier work
compound,measurement,setting,value
O=C1c2c(O)ccc(O)c2C(=O)c2c(NCCNCCO)ccc(NCCNCCO)c21 [mitoxantrone],inhibition at 5 µM,HMGA2-DNA interactions [1],≥ 50%
same,inhibition of HMGA2-DNA interactions,HMGA2-DNA interactions [2],≥ 50%
NF546,IC50,HMGA2-DNA interactions [3],5490 ± 2810 nM
same,HMGA2 Ka (M^−1),HMGA2; first type of binding sites,1.48 ± 0.47 × 10^7 M^−1
same,HMGA2 Binding site,HMGA2; first type,1.83
same,HMGA2 Binding site,HMGA2; second type,1.98
same,HMGA2 Ka (M^−1),HMGA2; second type of binding sites,3.37 ± 8.81 × 10^5 M^−1
same,ATHP3 Ka (M^−1),[4],4.28 ± 0.47 × 10^6 M^−1
same,ATHP3 Binding site,[4],0.81
Nc1ccc(-c2nc3ccc(-c4nc5ccc(N)cc5[nH]4)cc3[nH]2)cc1 [Ro 90-7501],inhibition of HMGA2-FL814 interactions,HMGA2-DNA interactions [1],≥ 50%
same,inhibition of HMGA2-DNA interactions (in words),HMGA2-DNA interactions [1],strongly inhibit HMGA2-DNA interactions
same,inhibition of HMGA2-DNA interactions,HMGA2-DNA interactions [2],≥ 50%
Cn1cc(NC(=O)c2cc(NC(=O)CN=C(N)N)cn2C)cc1C(=O)NCCC(=N)N [netropsin],IC50,HMGA2-DNA interactions [1],22 nM
same,differentiation of 3T3-L1 cells into adipocytes,[5],strongly inhibited
O=C1c2ccccc2C(=O)c2c(NCCc3ccc(O)cc3)ccc(NCCc3ccc(O)cc3)c21 [JFD00244],inhibition of HMGA2-FL814 interactions,HMGA2-DNA interactions [1],≥ 50%
indirubin-3′-monoxime,inhibition of HMGA2-FL814 interactions,HMGA2-DNA interactions [1],≥ 50%
C=C1C[C@@]23CC[C@H]4[C@@](C)(CCC[C@@]4(C)C(=O)O)[C@@H]2CC[C@]1(O)C3 [steviol],inhibition at 5 µM,HMGA2-DNA interactions [1],≥ 50%
N#CC(C#N)=C(N)/C(C#N)=C/c1cc(O)c(O)c(O)c1 [tyrphostin 51],inhibition at 5 µM,HMGA2-DNA interactions [1],≥ 50%
O=S(=O)([O-])c1cccc2ccccc12.[Na+] [sodium 1-naphthalenesulfonate],inhibition of HMGA2-DNA interactions (in words),HMGA2-DNA interactions [3]; SAR of suramin analogues,all of these analogues except sodium 1-naphthalenesulfonate potently inhibit HMGA2-DNA interactions
same,binding to HMGA2 (in words),HMGA2,all these chemical compounds except sodium 1-naphthalenesulfonate strongly bind to both HMGA2 and ATHP3
same,binding to ATHP3 (in words),[4],all these chemical compounds except sodium 1-naphthalenesulfonate strongly bind to both HMGA2 and ATHP3
O=C(Nc1cc(C(=O)Nc2ccc(S(=O)(=O)O)cc2S(=O)(=O)O)cc(C(=O)Nc2ccc(S(=O)(=O)O)cc2S(=O)(=O)O)c1)Nc1cc(C(=O)Nc2ccc(S(=O)(=O)O)cc2S(=O)(=O)O)cc(C(=O)Nc2ccc(S(=O)(=O)O)cc2S(=O)(=O)O)c1 [NF449],IC50,HMGA2-DNA interactions [3],430 ± 180 nM
same,HMGA2 Ka (M^−1),HMGA2; first type of binding sites,5.53 ± 6.14 × 10^7 M^−1
same,HMGA2 Binding site,HMGA2; first type,0.89
same,HMGA2 Binding site,HMGA2; second type,1.63
same,HMGA2 Ka (M^−1),HMGA2; second type of binding sites,8.17 ± 1.33 × 10^5 M^−1
same,ATHP3 Ka (M^−1),[4],1.10 ± 7.35 × 10^11 M^−1
same,ATHP3 Binding site,[4],0.86
"CN(N=O)c1ccc(O)c(O)c1 [methyl-3,4-dephostatin]",inhibition of HMGA2-FL814 interactions,HMGA2-DNA interactions [1],≥ 50%
N.N.O=C([O-])C1(C(=O)[O-])CCC1.[Pt+2] [carboplatin],inhibition of HMGA2-FL814 interactions,HMGA2-DNA interactions [1],≥ 50%
same,inhibition of HMGA2-DNA interactions,HMGA2-DNA interactions [2],≥ 50%
COc1cccc2c1C(=O)c1c(O)c3c(c(O)c1C2=O)C[C@@](O)(C(C)=O)C[C@@H]3O[C@H]1C[C@H](NCc2ccc(CN[C@H]3C[C@H](O[C@H]4C[C@](O)(C(C)=O)Cc5c(O)c6c(c(O)c54)C(=O)c4c(OC)cccc4C6=O)O[C@@H](C)[C@H]3O)cc2)[C@H](O)[C@H](C)O1 [WP631],IC50,HMGA2-DNA interactions [1],48 nM
N.N.[Cl][Pt][Cl] [cisplatin],inhibition of HMGA2-FL814 interactions,HMGA2-DNA interactions [1],≥ 50%
same,inhibition of HMGA2-DNA interactions,HMGA2-DNA interactions [2],≥ 50%
O=C(Nc1cc(C(=O)Nc2ccc(S(=O)(=O)O)cc2)cc(C(=O)Nc2ccc(S(=O)(=O)O)cc2)c1)Nc1cc(C(=O)Nc2ccc(S(=O)(=O)O)cc2)cc(C(=O)Nc2ccc(S(=O)(=O)O)cc2)c1 [NF110],IC50,HMGA2-DNA interactions [3],870 ± 39 nM
same,HMGA2 Ka (M^−1),HMGA2; first type of binding sites,2.04 ± 0.48 × 10^8 M^−1
same,HMGA2 Binding site,HMGA2; first type,2.06
same,HMGA2 Binding site,HMGA2; second type,1.77
same,HMGA2 Ka (M^−1),HMGA2; second type of binding sites,7.16 ± 0.67 × 10^5 M^−1
same,ATHP3 Ka (M^−1),[4],2.17 ± 0.17 × 10^7 M^−1
same,ATHP3 Binding site,[4],1.01
NC(Cc1cc(O)c(O)cc1O)C(=O)O (racemic) [6-hydroxy-DL-DOPA],inhibition of HMGA2-FL814 interactions,HMGA2-DNA interactions [1],≥ 50%
O=C(Nc1cccc(C(=O)Nc2ccc(S(=O)(=O)O)c3cc(S(=O)(=O)O)cc(S(=O)(=O)O)c23)c1)Nc1cccc(C(=O)Nc2ccc(S(=O)(=O)O)c3cc(S(=O)(=O)O)cc(S(=O)(=O)O)c23)c1 [NF023],IC50,HMGA2-DNA interactions [3],10600 ± 460 nM
same,HMGA2 Ka (M^−1),HMGA2; first type of binding sites,2.47 ± 4.53 × 10^6 M^−1
same,HMGA2 Binding site,HMGA2; first type,1.74
same,ATHP3 Ka (M^−1),[4],9.75 ± 3.47 × 10^6 M^−1
same,ATHP3 Binding site,[4],1
Nc1c(S(=O)(=O)O)cc(Nc2ccc(Nc3nc(Cl)nc(Nc4cccc(S(=O)(=O)O)c4)n3)c(S(=O)(=O)O)c2)c2c1C(=O)c1ccccc1C2=O [reactive blue-2],inhibition of HMGA2-FL814 interactions,HMGA2-DNA interactions [1],≥ 50%
O=C(O)C1=CC(=C(c2ccc(O)c(C(=O)O)c2)c2ccc(O)c(C(=O)O)c2)C=CC1=O [aurintricarboxylic acid],inhibition at 5 µM,HMGA2-DNA interactions [1],≥ 50%
same,inhibition of HMGA2-DNA interactions (in words),HMGA2-DNA interactions [1],strongly inhibit HMGA2-DNA interactions
same,inhibition of HMGA2-DNA interactions,HMGA2-DNA interactions [2],≥ 50%
